The results in this text go back to patent US20260248784A1, “BTK Degrader and Use Thereof” (JIANGSU VCARE PHARMATECH CO., LTD., priority 2023, published 2026).

In general, IC50 refers to the point on the concentration scale where inhibition reaches its midpoint.

The first assay relates to mino cells. The assay can be described thus: Activity test in Mino cells (CCK8 proliferation inhibition). The format is cell-based. The note with it: 3 days, read-out: Cell inhibition IC50. As to the method: Cell culture: mino cells (culture conditions: RPMI1640 medium+15% FBS, 37° C., 5% CO2). Cell plating: The cells subcultured into the logarithmic growth phase were collected and transferred into a centrifuge tube, and centrifuged at 800 rpm for 5 min. The cells were resuspended in complete medium and counted. The cells were diluted and adjusted to a final concentration of 200000 cells/mL. The cells were then seeded into a 96-well plate with 100 μL per well. Cell administration: Each group of drug solutions was added into the 96-well plate, 100 μL per well, n=3 for each drug concentration. Meanwhile, negative wells (n=6) and blank wells (n=3) were set up. The 96-well plate was incubated in the incubator for further 3 days. CCK8 reagent was added to the 96-well plate, 20 μL per well, and then the plate was placed in the incubator for further 4 h. The absorbance of the solution was measured at a wavelength of 450 nm using an enzyme reader. The proliferation inhibition rate was calculated and the half inhibitory concentration IC50 value was calculated.
For the compound `COc1ccc(F)cc1C(=O)NCc1ccc(-c2nn(-c3ccc(N4CCN(CC5CCN(c6ccc(N7CCC(=O)NC7=O)c(C)c6)CC5)CC4)nc3)c3ncnc(N)c23)cc1C` [Compound I-4], the IC50 worked out at 62 nM.

Still in this assay, the particulars now being: Homo sapiens, 72 h, 3 days, read-out: Cell inhibition IC50.
`COc1ccc(F)cc1C(=O)NCc1ccc(-c2nn(-c3ccc(N4CCN(CC5CCN(c6ccc(N7CCC(=O)NC7=O)cc6)CC5)CC4)nc3)c3ncnc(N)c23)cc1` [Compound I-3, N-(4-(4-amino-1-(6-(4-((1-(4-(2,4-dioxotetrahydropyrimidin-1(2H)-yl)phenyl)piperidin-4-yl)methyl)piperazin-1-yl)pyridin-3-yl)-1H-pyrazolo[3,4-d]pyrimidin-3-yl)benzyl)-5-fluoro-2-methoxybenzamide]: the IC50 amounted to 16 nM.
Consider `COc1ccc(F)cc1C(=O)NCc1ccc(-c2nn(-c3ccc(C4CCN(CC5CCN(c6ccc(N7CCC(=O)NC7=O)c(C)c6)CC5)CC4)cc3)c3ncnc(N)c23)cc1` [Compound I-5, N-(4-(4-amino-1-(4-(1-((1-(4-(2,4-dioxotetrahydropyrimidin-1(2H)-yl)-3-methylphenyl)piperidin-4-yl)methyl)piperidinyl)phenyl)-1H-pyrazolo[3,4-d]pyrimidin-3-yl)benzyl)-5-fluoro-2-methoxybenzamide], for which the IC50 worked out at 84 nM.
On to `COc1ccc(F)cc1C(=O)NCc1ccc(-c2nn(-c3ccc(C4CCN(CC5CCN(c6ccc(N7CCC(=O)NC7=O)cc6)CC5)CC4)cc3)c3ncnc(N)c23)cc1` [Compound I-6, N-(4-(4-amino-1-(4-(1-((1-(4-(2,4-dioxotetrahydropyrimidin-1(2H)-yl)phenyl)piperidin-4-yl)methyl)piperidinyl)phenyl)-1H-pyrazolo[3,4-d]pyrimidin-3-yl)benzyl)-5-fluoro-2-methoxybenzamide], for which the IC50 was 16 nM.
For the compound `COc1ccc(F)cc1C(=O)NCc1ccc(-c2nn(-c3ccc(C4CCN(CC5CCN(c6ccc(N7CCC(=O)NC7=O)c(C)c6)CC5)CC4)nc3)c3ncnc(N)c23)cc1` [Compound I-7, N-(4-(4-amino-1-(6-(1-((1-(4-(2,4-dioxotetrahydropyrimidin-1(2H)-yl)-3-methylphenyl)piperidin-4-yl)methyl)piperidin-4-yl)pyridin-3-yl)-1H-pyrazolo[3,4-d]pyrimidin-3-yl)benzyl)-5-fluoro-2-methoxybenzamide], the IC50 is less than 50 nM.
As for `COc1ccc(F)cc1C(=O)NCc1ccc(-c2nn(-c3ccc(N4CCN(CC5CCN(c6ccc(N7CCC(=O)NC7=O)c(C)c6)CC5)CC4)cc3)c(N)c2C(N)=O)cc1` [Compound I-8], the IC50 is less than 25 nM.
On to `COc1ccc(F)cc1C(=O)NCc1ccc(-c2nn(-c3ccc(N4CCN(CC5CCN(c6ccc(N7CCC(=O)NC7=O)c(C)c6)CC5)CC4)cc3)c3ncnc(N)c23)cc1` [Compound I-9], for which the IC50 was less than 25 nM.
Consider `COc1ccc(F)cc1C(=O)NCc1ccc(-c2nn(-c3ccc(C4CCN(CC5CCN(c6ccc(N7CCC(=O)NC7=O)c(C)c6)CC5)CC4)cc3)c(N)c2C(N)=O)cc1` [Compound I-11, 5-amino-1-(4-(1-(1-(4-(2,4-dioxotetrahydropyrimidin-1(2H)-yl)-3-methylphenyl)piperidin-4-yl)methyl)piperidin-4-yl)phenyl)-3-(4-(((5-fluoro-2-methoxybenzamido)methyl)phenyl)-1H-pyrazole-4-carboxamide], for which the IC50 is less than 25 nM.
On the same count and under the same terms, in the case of `COc1ccc(F)cc1C(=O)NCc1ccc(-c2nn(-c3ccc(C4CCN(CC5CCN(c6ccc(N7CCC(=O)NC7=O)c(C)c6)CC5)CC4)nc3)c(N)c2C(N)=O)cc1` [Compound I-12] it was less than 25 nM.
The same measure, in the same setting: in the case of `COc1ccc(F)cc1C(=O)NCc1ccc(-c2nn(-c3ccc(C4CCN(CC5CCN(c6ccc(C7CCC(=O)NC7=O)cc6)CC5)CC4)nc3)c3ncnc(N)c23)cc1` (centres unmarked) [Compound I-24] it was less than 100 nM; in that of `COc1ccc(F)cc1C(=O)NCc1ccc(-c2nc(-c3ccc(N4CCN(CC5CCN(c6ccc(N7CCC(=O)NC7=O)c(C)c6)CC5)CC4)nc3)n3ccnc(N)c23)cc1` [Compound I-30], less than 50 nM.
`COc1ccc(F)cc1C(=O)NCc1ccc(-c2nn(-c3ccc(N4CCN(CC5CCN(c6ccc(N7CCC(=O)NC7=O)c(C)c6)CC5)C[C@H]4C)nc3)c3ncnc(N)c23)cc1` [Compound I-41]: the IC50 was less than 25 nM.
For the compound `COc1ccc(F)cc1C(=O)NCc1ccc(-c2nn(-c3ccc(N4CCC(CN5CCN(c6ccc(N7CCC(=O)NC7=O)c(C)c6)CC5)CC4)cc3)c3ncnc(N)c23)cc1` [Compound I-42], the 50% inhibitory concentration (IC50) is less than 25 nM.
Turning to `COc1ccc(F)cc1C(=O)NCc1ccc(-c2nn(-c3ccc(N4CCN(CC5CCN(c6ccc(N7CCC(=O)NC7=O)c(C)c6)CC5)CC4)nc3)c3ncnc(N)c23)c(F)c1F` [Compound I-43], the IC50 is less than 50 nM.
With `COc1ccc(F)cc1C(=O)NCc1ccc(-c2nn(-c3ccc(C4CCN(CC5CCN(c6ccc(N7CCC(=O)NC7=O)c(C)c6)CC5)CC4)cc3)c3ncnc(N)c23)cc1F` [Compound I-44, N-(4-(4-amino-1-(4-(1-((1-(4-(2,4-dioxotetrahydropyrimidin-1(2H)-yl)-3-methylphenyl)piperidin-4-yl)methyl)piperidinyl)phenyl)-1H-pyrazolo[3,4-d]pyrimidin-3-yl)-2-fluorobenzyl)-5-fluoro-2-methoxybenzamide], the IC50 was less than 25 nM.
Consider `COc1ccc(F)cc1C(=O)NCc1ccc(-c2nc(-c3ccc(N4CCN(CC5CCN(c6ccc(N7CCC(=O)NC7=O)c(C)c6)CC5)CC4)cc3)n3ccnc(N)c23)cc1F` [Compound I-45], for which the IC50 is less than 50 nM.
On the same count and under the same terms, the result for `COc1ccc(F)cc1C(=O)NCc1ccc(-c2nn(-c3ccc(N4CCN(CC5CCN(c6ccc(N7CCC(=O)NC7=O)c(C)c6)CC5)CC4)cc3)c3ccnc(N)c23)cc1` [Compound I-46] reads less than 100 nM; that for `COc1ccc(F)cc1C(=O)NCc1ccc(-c2nc(-c3ccc(N4CCN(CC5CCN(c6ccc(N7CCC(=O)NC7=O)c(C)c6)CC5)CC4)cc3)n3ccnc(N)c23)c(F)c1` [Compound I-47], less than 25 nM; that for `COc1ccc(F)cc1C(=O)NCc1ccc(-n2c(=O)n(-c3ccc(N4CCN(CC5CCN(c6ccc(N7CCC(=O)NC7=O)c(C)c6)CC5)CC4)cc3)c3ccnc(N)c32)cc1` [Compound I-48], less than 25 nM.
As to `CCc1cc(-c2nc(-c3ccc(CNC(=O)c4cc(F)ccc4OC)cc3)c3c(N)nccn23)ccc1N1CCN(CC2CCN(c3ccc(N4CCC(=O)NC4=O)c(C)c3)CC2)CC1` [Compound I-49], the half-inhibitory concentration (IC50) was less than 100 nM.
As for `COc1ccc(F)cc1C(=O)NCc1ccc(-c2nc(-c3ccc(C4=CCN(CC5CCN(c6ccc(N7CCC(=O)NC7=O)c(C)c6)CC5)CC4)cc3)n3ccnc(N)c23)cc1` [Compound I-50], the IC50 was less than 25 nM.
As to `COc1ccc(F)cc1C(=O)NCc1ccc(-c2nc(-c3ccc(N4CCN(CC5CCN(c6ccc(N7CCC(=O)NC7=O)c(C)c6)CC5)CC4)c(OC)c3)n3ccnc(N)c23)cc1` [Compound I-51], the IC50 is less than 25 nM.
`COc1ccc(F)cc1C(=O)NCc1ccc(-n2c(=O)n(-c3ccc(N4CCN(CC5CCN(c6ccc(N7CCC(=O)NC7=O)c(C)c6)CC5)CC4)nc3)c3ccnc(N)c32)cc1` [Compound I-52, N-(4-(4-amino-1-(6-(4-((1-(4-(2,4-dioxotetrahydropyrimidin-1(2H)-yl)-3-methylphenyl)piperidin-4-yl)methyl)piperazin-1-yl)pyridin-3-yl)-2-oxo-1,2-dihydro-3H-imidazo[4,5-c]pyridin-3-yl)benzyl)-5-fluoro-2-methoxybenzamide]: the IC50 was less than 50 nM.
Take `COc1ccc(F)cc1C(=O)NCc1ccc(-c2nc(-c3ccc(N4CC5CC(C4)N5CC4CCN(c5ccc(N6CCC(=O)NC6=O)c(C)c5)CC4)cc3)n3ccnc(N)c23)cc1` [Compound I-53]: the IC50 was less than 50 nM.
Same read-out and setting: in the case of `Cc1cc(N2CCC(CN3CCN(c4ccc(-c5nc(-c6ccc(Oc7ccccc7)cc6)c6c(N)nccn56)cn4)CC3)CC2)ccc1N1CCC(=O)NC1=O` [Compound I-54, 1-(4-(4-((4-(5-(8-amino-1-(4-phenoxyphenyl)imidazo[1,5-a]pyrazin-3-yl)pyridin-2-yl)piperazin-1-yl)methyl)piperidin-1-yl)-2-methylphenyl)dihydropyrimidine-2,4(1H,3H)-dione] it was less than 50 nM; in that of `Cc1cc(N2CCC(CN3CCN(c4ccc(-n5nc(-c6ccc(Oc7ccccc7)cc6)c6c(N)ncnc65)cc4)CC3)CC2)ccc1N1CCC(=O)NC1=O` [Compound I-55], less than 100 nM.
Still for that read-out and setting: in the case of `COc1ccc(F)cc1C(=O)NCc1ccc(-c2nn(-c3ccc(N4CCN(CC5CCN(c6ccc7c(c6)CN(C6CCC(=O)NC6=O)C7=O)CC5)CC4)nc3)c3ncnc(N)c23)cc1` (centres unmarked) [II-1] it was 4 nM; in that of `COc1ccc(F)cc1C(=O)NCc1ccc(-c2nn(-c3ccc(N4CCN(CC5CCN(c6ccc7c(c6)CN(C6CCC(=O)NC6=O)C7=O)CC5)CC4)nc3)c3ncnc(N)c23)cc1C` (centres unmarked) [II-2, N-(4-(4-amino-1-(6-(4-((1-(2-(2,6-dioxopiperidin-3-yl)-1-oxoisoindolin-5-yl)piperidin-4-yl)methyl)piperazin-1-yl)pyridin-3-yl)-1H-pyrazolo[3,4-d]pyrimidin-3-yl)-2-methylbenzyl)-5-fluoro-2-methoxybenzamide], 17 nM; in that of `COc1ccc(F)cc1C(=O)NCc1ccc(-c2nn(-c3ccc(N4CCN(CC5CCN(c6ccc7c(c6)C(=O)N(C6CCC(=O)NC6=O)C7=O)CC5)CC4)nc3)c3ncnc(N)c23)cc1` (centres unmarked) [II-3, N-(4-4-amino-1-(6-(4-(1-(2,6-dioxopiperidin-3-yl)-1,3-dioxoisoindolin-5-ylpiperidin-4-yl)methylpiperazin-1-ylpyridin-3-yl)-1H-pyrazolo[3,4-d]pyrimidin-3-yl)benzyl)-5-fluoro-2-methoxybenzamide], 17 nM.
